Experimental data published in paper PMC13371181, “A paracrine-to-autocrine shunt of GREM1 fuels colorectal cancer metastasis via ACVR1C” (Molecular Cancer, 2026).
Entries after “also recorded” stand apart in the source; their conditions may differ.

Legend:
SW480 cells [1] = experiment: GREM1 expression in SW480 cells after rhGREM1, RT–qPCR; assay type: cell-based, human; conditions: n = 3 biological replicates
Protocol: Total RNA was extracted using Trizol reagent (Invitrogen, 15596026). According to the instructions, cDNA was generated using the PrimeScript RT reagent Kit with gDNA Eraser (Accurate Biology, AG11706). The SYBR Green Premix Pro Taq HS qPCR Kit (Accurate Biology, AG11701) was then used to quantify mRNA expression according to the manufacturer’s instructions. All results were calculated using the 2^−ΔΔCt method. Primers used in the study are listed in Supplementary Table 1.

HCT116 cells [2] = experiment: Subcutaneous transplantation of GREM1-CM-pretreated HCT116 cells in nude mice; assay type: in vivo, human cells in nude mice; conditions: SB505124 10 mg/kg i.p. every other day
Protocol: For cecum-to-liver metastasis model, 1 × 10^6 MC38-luc cells were resuspended in 50 µL of PBS and injected into the cecum of GD mice or control mice (Grem1-CreER^T2/Rosa-LSL-DTA mice) (n = 6 mice in each group); 5 × 10^6 HCT116-luc cells transduced with lentivirus carrying a pLV or pLV-GREM1 were injected into the cecum of NOG mice (n = 5 mice in each group). SB505124 was administered via intraperitoneal injection at a dose of 10 mg/kg once every other day. The metastases were examined every 5 days post injection using an IVIS Lumina Imaging System. Mice were euthanized between 2 and 6 weeks after injection. […] Mice were euthanized 4 weeks after injection. The tumor tissues were collected for further evaluation.
Figure S8. SB505124 inhibits GREM1-CM-induced EMT and metastasis of CRC in vivo. […] D, RT–qPCR analysis of epithelial marker CDH1 and mesenchymal markers CTNNB1, SNAI1, ZEB1 in subcutaneous tumor tissues from the indicated treatment groups. n = 3 independent experiments. E-G, Representative IF images (E) and quantification (F, G) of E-CAD (green), SNAIL (red), and DAPI (blue) staining in tumors from the indicated groups. […] H, I, Representative IVIS images (H) and quantification (I) of NOG mice that were injected with HCT116-luc cells in the cecum wall and treated with either SB505124 or vehicle via abdominal injection. Liver metastases were imaged and quantified using the IVIS Lumina Imaging System (n = 5 mice per group). For B–D, F, G and I, data are presented as mean ± s.e.m. P values were calculated using one-way ANOVA with Bonferroni multiple-comparison test (B–D, F, and G) or two-tailed Student’s t-test (I).

SNAI1 promoter = experiment: ChIP–qPCR, SMAD2/3/4 binding to SNAI1 promoter; assay type: cell-based, human; conditions: SW480 cells, SB505124 10 µM, 24 h, n = 3 independent experiments
Protocol: (§1) SW480 cells were starved in DMEM with 1% FCS overnight before treatment with vehicle, 10 µM SB505124 for 24 h. Cells were fixed in 1% paraformaldehyde for 10 min at RT for DNA-protein cross-linking, followed by quenching with glycine. Cross-linking chromatin was prepared using the SimpleChIP® Enzymatic Chromatin IP Kit (CST, 9002) according to the manufacturer’s instructions. For immunoprecipitation, 10 µg chromatin was incubated with 10 µL anti-histone H3 rabbit IgG (CST, 14269, positive control), 2 µL normal Rabbit IgG (CST, 2729) or 5 µL anti-SMAD2/3 rabbit IgG (CST, 8685) at 4 °C overnight. 2% chromatin prior to immunoprecipitation was used as input. Chromatin-protein-antibody complex was captured by protein G magnetic beads, and chromatin was released by reversal of cross-links and purified using the SimpleChIP® Enzymatic Chromatin IP Kit (CST, 9002) according to the manufacturer’s instructions. DNA was quantified by qPCR with primers targeting predicted SMAD2/3/4 binding regions on GREM1 or SNAI1 promoters. DNA levels were normalized to the input, and the fold-change of enrichment was calculated over the control. ChIP–qPCR primers are listed in Supplementary Table 2.

[3] = tested on: type I TGFβ/Activin receptors; conditions: SB505124; cited from earlier work
Protocol: Fig. 3 Secretory GREM1 binding of ACVR1C induces EMT via SMAD2/3 pathway. A, RNA sequencing was performed on HCT116 cells treated with GREM1 conditioned medium (GREM1-CM) or vector control conditioned medium (Vec-CM), followed by GSEA of the C2 gene sets. NES, normalized enrichment score; all P values equal to 0. B, Activation levels of the ACVR1C pathway markers (p-SMAD2/3 and SMAD2/3), as well as expression of the epithelial marker (E-CAD) and the mesenchymal markers (SNAIL, ZEB1, and β-CAT) were compared by immunoblotting analysis in SW480 and HCT116 cells treated with Vec-CM, GREM1-CM, GRE ...

HCT116 cells [4] = experiment: Scratch assay, HCT116; assay type: cell-based, human; conditions: HCT116, scratch assay 24 h; n = 3 independent experiments
Protocol: (§2) To investigate the effect of secreted GREM1 on CRC cells, an in vitro GREM1 secretion system was established using HEK293 cells. Stably GREM1-expressing cells (pcDNA3.1-GREM1) and empty-vector transfected cells (pcDNA3.1) were cultured in DMEM/F12 medium with 10% FBS until 40% confluence. After complete removal of the normal culture medium, HEK293-GREM1 and HEK293-Vec cells were continuously cultured in DMEM/F12 medium without FBS for 5 days before medium collection. GREM1 or Vector conditioned medium (GREM1-CM/Vec-CM) was then centrifuged at 1000 rpm for 30 min and the supernatant was collected for further study.
(§3) Cells were seeded into 6-well plates after centrifugation and digestion with 0.05% trypsin. When the cell density reached 90%, three vertical lines were scratched in each well with a 10 µL pipette tip and the floating cells were gently washed away with 1×PBS. Complete medium was added, and images of the scratch area were taken at 0 h. Three different fields of view were selected for each well. After photography, the medium was replaced with serum-free medium. Wound healing was documented at the same location after 24–48 h of incubation.

SW480 cells [5] = experiment: Scratch assay, SW480; assay type: cell-based, human; conditions: SW480, scratch assay 48 h; n = 3 independent experiments
Protocol: as §2, §3

GREM1 promoter = experiment: ChIP–qPCR, SMAD2/3/4 binding to GREM1 promoter; assay type: cell-based, human; conditions: SW480 cells, SB505124 10 µM, 24 h, n = 3 independent experiments
Protocol: as §1

- SMAD2/3/4 binding to SNAI1 promoter −787 site (SNAI1 promoter): significantly decreased this binding
- SMAD2/3/4 binding to GREM1 promoter −733 and −612 sites (GREM1 promoter): significantly reduced this binding
SMILES: Cc1cccc(-c2[nH]c(C(C)(C)C)nc2-c2ccc3c(c2)OCO3)n1 [SB505124]
- rhGREM1-induced GREM1 expression, effect of inhibitor (SW480 cells [1]): completely reversed the effect of rhGREM1
- E-CAD and SNAIL expression in subcutaneous tumors (HCT116 cells [2]; IF, n = 5 mice per group): restored E-CAD expression and suppressed SNAIL expression
- subcutaneous tumor progression and EMT (HCT116 cells [2]; nude mice, GREM1-CM-pretreated HCT116, n = 6 mice per group): suppressed tumor progression and EMT
- selectivity of SMAD2/3 phosphorylation block [3]: selectively blocks the type I TGFβ/Activin receptors-mediated SMAD2/3 phosphorylation
- GREM1-CM-induced migration, effect of inhibitor (HCT116 cells [4]): abolished; also recorded: suppressed
- GREM1-CM-induced migration, effect of inhibitor (SW480 cells [5]): abolished; also recorded: suppressed
